Results from the supplement of paper PMC5908809.

Key:
[1] = test system: normal NK cells expanded with K562-aAPC; assay: percent inhibition of viability; higher = more inhibition; details: 72 h, IL-2 2.5 ng/mL
Method: (§1)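 Drug sensitivity and resistance testing on K562-aAPC-expanded normal NK cells: 5 concentrations (10-fold steps over a 10,000-fold range), 72 h at 37 °C, viability by CellTiter-Glo normalised to DMSO and benzethonium chloride controls; DSS from the fitted curve.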

[2] = test system: DERL-7 (IL-2 2.5 ng/mL); assay: as above; details: 72 h
[3] = test system: IMC-1 (IL-2 20 ng/mL); assay: as above; details: 72 h
[4] = test system: KAI3 (IL-2 2.5 ng/mL); assay: as above; details: 72 h
[5] = test system: KHYG-1 (IL-2 2.5 ng/mL); assay: as above; details: 72 h
[6] = test system: NK-92 (IL-2 2.5 ng/mL); assay: as above; details: 72 h
[7] = test system: NK-YS (IL-2 2.5 ng/mL); assay: as above; details: 72 h
[8] = test system: NKL (IL-2 2.5 ng/mL); assay: as above; details: 72 h
[9] = test system: SNK-6 (IL-2 2.5 ng/mL); assay: as above; details: 72 h
[10] = test system: YT (IL-2 2.5 ng/mL); assay: as above; details: 72 h
[11] = test system: normal primary NK cells, pool 1 (3 donors) (IL-2 2.5 ng/mL); assay: as above; details: 72 h
[12] = test system: normal primary NK cells, pool 1 (3 donors), resting (IL-2 0 ng/mL); assay: as above; details: 72 h
[13] = test system: normal primary NK cells, pool 2 (3 donors) (IL-2 2.5 ng/mL); assay: as above; details: 72 h
[14] = test system: normal primary NK cells, pool 3 (3 donors) (IL-2 2.5 ng/mL); assay: as above; details: 72 h
[15] = test system: normal NK cells expanded with K562-aAPC; assay: drug sensitivity score (DSS) (DSS units); higher = more sensitive; extreme values may be limits of the assay; details: 72 h; IL-2 2.5 ng/mL
Method: as §1

[16] = test system: DERL-7 (IL-2 2.5 ng/mL); assay: as above; details: 72 h
[17] = test system: IMC-1 (IL-2 20 ng/mL); assay: as above; details: 72 h
[18] = test system: KAI3 (IL-2 2.5 ng/mL); assay: as above; details: 72 h
[19] = test system: KHYG-1 (IL-2 2.5 ng/mL); assay: as above; details: 72 h
[20] = test system: NK-92 (IL-2 2.5 ng/mL); assay: as above; details: 72 h
[21] = test system: NK-YS (IL-2 2.5 ng/mL); assay: as above; details: 72 h
[22] = test system: NKL (IL-2 2.5 ng/mL); assay: as above; details: 72 h
[23] = test system: SNK-6 (IL-2 2.5 ng/mL); assay: as above; details: 72 h
[24] = test system: YT (IL-2 2.5 ng/mL); assay: as above; details: 72 h
[25] = test system: normal primary NK cells, pool 1 (3 donors) (IL-2 2.5 ng/mL); assay: as above; details: 72 h
[26] = test system: normal primary NK cells, pool 1 (3 donors), resting (IL-2 0 ng/mL); assay: as above; details: 72 h
[27] = test system: normal primary NK cells, pool 2 (3 donors) (IL-2 2.5 ng/mL); assay: as above; details: 72 h
[28] = test system: normal primary NK cells, pool 3 (3 donors) (IL-2 2.5 ng/mL); assay: as above; details: 72 h

COc1cc(Nc2c(C#N)cnc3cc(OCCCN4CCN(C)CC4)c(OC)cc23)c(Cl)cc1Cl [Bosutinib] (max concentration tested 10000 nM)
percent inhibition of viability [%]
Details	1 nM	10 nM	100 nM	1000 nM	10000 nM
[1]	4.72	2.21	15.7	3.76	99.9
[2]	1.55	6.21	8.26	37.4	100
[3]	-6.46	0.66	-10.5	-9.81	96.6
[4]	8.38	12	3.26	31.6	97.2
[5]	-3.69	1.01	-1.05	26.2	96.2
[6]	-0.68	-2.8	-0.62	22.4	97.7
[7]	-4.4	-3.22	-2.75	2.53	96.7
[8]	-12.2	-8.59	-6.88	0.83	95.5
[9]	6.03	14.6	-18.2	-17.4	99.7
[10]	1.55	1.24	2.37	15.2	97.2
[11]	-9.61	-1.56	4.38	20.6	100
[12]	-6.19	-3.78	1.15	58.5	99.3
[13]	-12.2	-5.59	-2.85	25.5	98.1
[14]	0.05	-0.81	10.8	-5.33	99.8

Details	drug sensitivity score
[15]	6.07
[16]	9.96
[17]	4.71
[18]	9.81
[19]	9.26
[20]	8.9
[21]	5.71
[22]	5.43
[23]	4.57
[24]	7.9
[25]	8.82
[26]	12.4
[27]	9.3
[28]	5.14

CCC/C=C/C=C/C(=O)O[C@H]1/C(=C/C(=O)OC)C[C@H]2C[C@H]([C@@H](C)O)OC(=O)C[C@H](O)C[C@@H]3C[C@H](OC(C)=O)C(C)(C)[C@](O)(C[C@@H]4C/C(=C/C(=O)OC)C[C@H](/C=C/C(C)(C)[C@]1(O)O2)O4)O3 [Bryostatin 1] (max concentration tested 100 nM)
percent inhibition of viability [%]
Details	0.01 nM	0.1 nM	1 nM	10 nM	100 nM
[1]	-6.34	-41.9	-55.2	-31.9	-30.3
[2]	-2.14	-19.4	24.4	20	35.2
[3]	-3.95	3.27	75.6	68.3	62.7
[4]	0.24	5.23	4.64	21.7	-6.8
[5]	1.17	35.4	102	106	99.2
[6]	-10.7	25.5	87.5	103	95.4
[7]	-5.4	-9.97	-7.91	1.59	-4.21
[8]	-18.8	-58.9	-74.9	-67.5	-81.5
[9]	13.4	39.5	64.4	35.5	18
[10]	2.73	-2.33	-3.22	1.88	1.24
[11]	-10.4	-18.6	-14.9	-23.1	-10.7
[12]	-14.3	14.4	-0.07	-6.68	5.47
[13]	-15.1	-25.1	-48.2	-38	-37.6
[14]	-5.42	-30.1	-40.2	-35	-20.7

Details	drug sensitivity score
[15]	0
[16]	8.96
[17]	23.9
[18]	0
[19]	35.4
[20]	31.7
[21]	0
[22]	0
[23]	14.9
[24]	0
[25]	0
[26]	0
[27]	0
[28]	0
